{"source": "patent US4224199A", "about": "“Somatostatin analogs having a substituted tryptophyl residue in position eight” (priority 1978, dated 1980)", "test_system": "rat anterior pituitary cells", "assay": "in vitro inhibition of growth hormone release from dispersed rat anterior pituitary cells (radioimmunoassay)", "type": "cell-based", "conditions": "rat anterior pituitary cells 4 days in culture, incubated 5 hours at 37° C., potency from ED50 relative to somatostatin", "method": "Meyers et al., Biochem. Biophys. Res. Commun., 74, 630(1977). In this method, the tetradecapeptides of this invention are shown to inhibit the release of radioimmunoassayable growth hormone in vitro from enzymatically dispersed rat anterior pituitary cells prepared as described by F. Labrie et al., Sixth Karolinska Symp. on Res. Meth. in Reprod. Endocrinol. (W. Dozfalusy, Ed.), pp 301-328(1973). Following four days in culture, the cells are washed and incubated for five hours at 37° C. in Dulbecco-modified Eagle's medium in the presence or absence of increasing concentrations of each tetradecapeptide analog. Growth hormone levels are determined by double antibody radioimmunoassay, method described by C. A. Birge et al., Endocrinol., 81, 195-204(1967), for rat growth hormone using the NIAMDD Rat GH RIA kit. The dose required for a 50% inhibition of growth hormone release (ED50) is calculated for each analog by the method of D. Rodbard, Endocrinol., 94, 1427-1437(1974). The potency of the tetradecapeptide analogs of this invention relative to somatostatin is illustrated in table I.", "data": [{"compound": "cyclic[3-14 disulfide] of L-alanyl-glycyl-L-cysteinyl-L-asparaginyl-L-lysyl-L-phenylalanyl-L-phenylalanyl-L-5-fluorotryptophyl-L-lysyl-L-threonyl-L-phenylalanyl-L-threonyl-L-seryl-L-cysteine [Example L-5-F-Trp]", "values": [{"measurement": "Growth Hormone Release-Inhibiting Activity, Relative to Somatostatin", "result": 476, "unit": "%"}]}, {"compound": "C[C@H](N)C(=O)NCC(=O)N[C@H]1CSSC[C@@H](C(=O)O)NC(=O)[C@H](CO)NC(=O)[C@H]([C@@H](C)O)NC(=O)[C@H](Cc2ccccc2)NC(=O)[C@H]([C@@H](C)O)NC(=O)[C@H](CCCCN)NC(=O)[C@@H](Cc2c[nH]c3ccc(F)cc23)NC(=O)[C@H](Cc2ccccc2)NC(=O)[C@H](Cc2ccccc2)NC(=O)[C@H](CC(N)=O)NC(=O)[C@H](CCCCN)NC1=O", "note": "[Example D-5-F-Trp, cyclic[3-14 disulfide] of L-alanyl-glycyl-L-cysteinyl-L-lysyl-L-asparaginyl-L-phenylalanyl-L-phenylalanyl-D-5-fluorotryptophyl-L-lysyl-L-threonyl-L-phenylalanyl-L-threonyl-L-seryl-L-cysteine]", "values": [{"measurement": "Growth Hormone Release-Inhibiting Activity, Relative to Somatostatin", "result": 2499, "unit": "%"}]}]}
